Source: patent EP0608419A1, “TRANSOCULAR PREPARATION” (FUJISAWA PHARMACEUTICAL CO., LTD., priority 1991, dated 1993)
Like-named read-outs stand apart in the source and are kept apart here.

Tests used:
[1] = tested on: intraocular vascularization; assay: Suppression of induced intraocular vascularization (cupric chloride pellet and aminoadipic acid) by eye drops, histological observation; assay type: in vivo, rabbits (Dutch); conditions: 2 mg/ml in isotonic phosphate buffer solution (pH 8), eye drops twice a day for 12 days; both eyes of five rabbits
Description: Both eyes of five rabbits (Dutch) were used for this experiment. Into the vitreum of the rabbits, 0.2 ml of sterilized air was injected. […] At the same time as transplantation, 1 mg of aminoadipic acid dissolved in 0.2 ml of physiological saline solution was injected into the vitreum, by which vascularization in the eyes (i.e. in the vitreum) was induced. Twenty-four hours later, isotonic phosphate buffer solution (pH 8, 2 mg/ml) which contained the same test compound used in Example 1 was administered drop by drop to each rabbit. The same administration was repeated twice a day for consecutive 12 days. After the final administration on the 12th day, the eyeballs were taken out therefrom and observed histologically to find whether the vascularization was suppressed or not.

[2] = Concentration of test compound in eye tissue and blood after continuous subcutaneous administration by implanted mini-pump (EIA); assay type: in vivo, JW (clean) strain female rabbits; conditions: sc, 2.5 mg/animal/day, read-out: Mean concentration in tissue ± S.E.
Description: (§1) c The experiment was carried out using JW (clean) strain female rabbits (body weight: 2.3 to 2.6 kg), each test group containing three rabbits. In this experiment, the rabbits were allowed to feed themselves and drink water freely both before and after each administration.
On the other hand, in case of continuous subcutaneous administration, after the rabbits were anesthetized by injection of "Nembutal" (Trademark, 0.5 to 0.6 ml/kg i.v.), they were clipped their back side hair and then were incised their clipped parts about 3 cm long with a surgical knife. […] Subsequently, the incised parts of the rabbits were sutured with silk thread, and then the rabbits were brought back to their cage. In this case, total dosage was 2.5 mg/rabbit/day. The day when the mini-pump was implanted was defined as "Day 0". On Day 5, the rabbits were anesthetized by injection of "Nembutal" (Trademark) into the ear vein to bleed to death, and then the eyeballs were taken out therefrom. In this experiment, blood was collected for measuring a concentration of the test compound in blood on each Day 1, 4 and 5.
(§2) The eyeballs taken out were washed with physiological saline solution under ice-cooling, and subsequently divided into various parts (i.e. cornea, aqueous humor in anterior chamber of eye, iris, lens, vitreum, retinochoroid and sclera). After measuring the weight of each part, phosphate buffer solution (pH 7.4) was added thereto and then the parts were homogenized using a glass-made "Potter-type homogenizer" (Trademark).
(§3) The determination of a concentration of the test compound in each sample was carried out by the two-step Enzyme-linked immunosorbent assay (EIA) using purified polyclonal antibody against the test compound.

[3] = Concentration of test compound in eye tissue and blood after transocular administration of ophthalmic solution (EIA); assay type: in vivo, JW (clean) strain female rabbits; conditions: topical or ocular, read-out: Mean concentration in tissue ± S.E.
Description: The resultant preparation was filled in an instillator.
as §1
In case of transocular administration of ophthalmic solution, the rabbits were fixed on the cangue fixer and applied to each eye with one drop (about 0.05 ml) of the above ophthalmic solution using an instillator. The administration was repeated five times at 5-minute intervals. After the final administration, the rabbits were brought back to their cage. In these administrations, total dosage was 1 mg/rabbit. At 30 minutes after the final administration, blood was collected from the ear vein of the rabbits. Immediately, the rabbits were anesthetized by injection of "Nembutal" (Trademark) into the ear vein to bleed to death by cutting off their head and then the eyeballs were taken out therefrom.
as §2, §3

In the case of `CNC(=O)OC1CCC2(CO2)C(C2(C)OC2CC=C(C)C)C1OC` (stereo not drawn) [test compound, 6-Methylcarbamoyloxy-5-methoxy-4-[2-methyl-3-(3-methyl-2-butenyl)oxiranyl]-1-oxaspiro[2.5]octane], the “eyeballs in which intraocular vascularization was suppressed thoroughly” value [1] is reported as 42.9%, the “eyeballs in which the vascularization was suppressed partially or thoroughly” value [1] is reported as 85.7% and the concentration at 120 h ([2]; Aqueous humor in anterior chamber of eye, Day 5 of continuous subcutaneous administration (2.5 mg/rabbit/day), n = 6) is reported as 0.79 ± 0.62 ng/g. It also gave a concentration at 120 h ([2]; Cornea, Day 5 of continuous subcutaneous administration (2.5 mg/rabbit/day) by mini-pump, n = 6) of 2.87 ± 0.52 ng/g, a concentration at 120 h ([2]; Lens, Day 5 of continuous subcutaneous administration (2.5 mg/rabbit/day), n = 6) of 0.2 ± 0.08 ng/g and a concentration at 120 h ([2]; Retinochoroid, Day 5 of continuous subcutaneous administration (2.5 mg/rabbit/day), n = 6) of 0.6 ± 0.26 ng/g. It also gave a concentration at 120 h ([2]; Sclera, Day 5 of continuous subcutaneous administration (2.5 mg/rabbit/day), n = 6) of 1.06 ± 0.27 ng/g, a concentration at 120 h ([2]; Vitreum, Day 5 of continuous subcutaneous administration (2.5 mg/rabbit/day), n = 6) of 1.19 ± 0.23 ng/g and a concentration at 24 h ([2]; Whole blood, Day 1 (n=3), continuous subcutaneous administration (2.5 mg/rabbit/day)) of 30.6 ± 6.13 ng/g. For the same compound, the concentration at 96 h ([2]; Whole blood, Day 4 (n=3), continuous subcutaneous administration (2.5 mg/rabbit/day)) was 13.7 ± 9.74 ng/g, the concentration at 120 h ([2]; Whole blood, Day 5 (n=3), continuous subcutaneous administration (2.5 mg/rabbit/day)) was 22.5 ± 4.12 ng/g and the concentration at 0.5 h ([3]; Aqueous humor in anterior chamber of eye, 30 min. after transocular administration of ophthalmic solution (total 1 mg/rabbit), n = 6) was 141 ± 59.7 ng/g. The concentration at 0.5 h ([3]; Cornea, 30 min. after transocular administration of ophthalmic solution (2 mg/ml, total 1 mg/rabbit), n = 6) was 1.56 ± 0.73 ng/g, the concentration at 0.5 h ([3]; Lens, 30 min. after transocular administration of ophthalmic solution (total 1 mg/rabbit), n = 6) was 12.4 ± 2.11 ng/g and the concentration at 0.5 h ([3]; Retinochoroid, 30 min. after transocular administration of ophthalmic solution (total 1 mg/rabbit), n = 6) was 40.2 ± 9.4 ng/g. The concentration at 0.5 h ([3]; Sclera, 30 min. after transocular administration of ophthalmic solution (total 1 mg/rabbit), n = 6) was 0.78 ± 0.78 ng/g, the concentration at 0.5 h ([3]; Vitreum, 30 min. after transocular administration of ophthalmic solution (total 1 mg/rabbit), n = 6) was 9.99 ± 2.37 ng/g and the concentration at 0.5 h ([3]; Whole blood (n = 3), 30 min. after transocular administration of ophthalmic solution (total 1 mg/rabbit)) was 19.6 ± 4.22 ng/g.
